pIC50: −log10 of the molar value.

In general, pIC50 refers to the negative decadic logarithm of the IC50, by convention in mol/L.

For this experiment, the system named is MDA-MB-231 cells. As to the kind of experiment: Extracellular lactate production inhibition after 4 h, MDA-MB-231. The conditions noted are these: Homo sapiens, MDA-MB-231.
Experimental: Extracellular Lactate Production Inhibition after 4 h
Cells were plated in growth media supplemented with 10% FBS, followed by overnight recovery at 37° C., 5% CO2. […] Plates were then moved for 4 h incubation at 37° C., 5% CO2 with subsequent 20 μl media transfer to empty 384-well transparent plates. […] Plates were short-spun and measured kinetically in absorbance mode (530 nm, 12 min measurement time with 2-minute intervals between subsequent readouts at 30° C.). Differences in the signal between T8 min and T0min were normalized to vehicle (cells w/ 0.25% DMSO) and quasi-positive (LCIS buffer w/ 0.25% DMSO) controls and plotted against logarithmically-transformed test compound concentrations with fitting the 4-parameter model in GraphPad Prism software.
As for `COC(=O)c1ncc(C#Cc2cc(F)ccc2NS(=O)(=O)c2c(C)ccc3cccnc23)cc1C` [Compound 312, methyl 5-{2-[5-fluoro-2-(7-methylquinoline-8-sulfonamido)phenyl]ethynyl}-3-methylpyridine-2-carboxylate], the pIC50 was 4.00 to 6.00.
The figure for `COc1ccc(NS(=O)(=O)c2ccccc2C#Cc2ccc(C(=O)O)nc2)c(C)c1C` [Compound 430, 5-(2-{2-[(4-methoxy-2,3-dimethylphenyl)sulfamoyl]phenyl}ethynyl)pyridine-2-carboxylic acid] is 4.00 to 6.00; for `Cc1ccc2cccnc2c1S(=O)(=O)Nc1ccc(C(C)C)cc1C#Cc1ccc(C(=O)O)nc1` [Compound 416, 5-{2-[2-(7-methylquinoline-8-sulfonamido)-5-(propan-2-yl)phenyl]ethynyl}pyridine-2-carboxylic acid] it is 6.00 to 7.00; for `CN(c1ccccc1)S(=O)(=O)c1ccccc1C#Cc1ccc(C(=O)O)nc1` [Compound 440, 5-(2-{2-[methyl(phenyl)sulfamoyl]phenyl}-ethynyl)pyridine-2-carboxylic acid] it is 4.00 to 6.00.
The figure for `O=CN(Cc1ccc2ccccc2c1)c1ccccc1C#Cc1ccc(C(=O)O)nc1` [Compound 115, 5-[2-(2-{N-[(naphthalen-2-yl)methyl]formamido}phenyl)ethynyl]-pyridine-2-carboxylic acid] is 6.00 to 7.00; for `O=C(O)c1ccc(C#Cc2ccccc2NS(=O)(=O)c2ccc3c(c2)Cc2ccccc2-3)cc1` [Compound 87, 4-{2-[2-(9H-fluorene-2-sulfonamido)phenyl]ethynyl}benzoic acid] it is 6.00 to 7.00; for `COC(=O)c1ccc(C#Cc2ccccc2NS(=O)(=O)c2c(C)ccc3cccnc23)cn1` [Compound 143, methyl 5-{2-[2-(7-methylquinoline-8-sulfonamido)phenyl]ethynyl}pyridine-2-carboxylate] it is 7.00 to 8.00.
In the case of `CCCc1ccc(S(=O)(=O)Nc2ccccc2C#Cc2ccc(C(=O)O)nc2)c2ncccc12` [Compound 414, 5-{2-[2-(5-propylquinoline-8-sulfonamido)phenyl]ethynyl}pyridine-2-carboxylic acid] it was 7.00 to 8.00.
`COc1ccccc1-c1cccc(S(=O)(=O)Nc2ccccc2C#Cc2ccc(C(=O)O)nc2)c1` [Compound 114, 5-[2-(2-{2′-methoxy-[1,1′-biphenyl]-3-sulfonamido}phenyl)ethynyl]pyridine-2-carboxylic acid] showed a pIC50 of 6.00 to 7.00.
The figure for `COc1ccc(S(=O)(=O)Nc2ccccc2C#Cc2ccc(C(=O)O)cc2)cc1C` [Compound 56, 4-{2-[2-(4-methoxy-3-methylbenzenesulfonamido)phenyl]-ethynyl}benzoic acid] is 6.00 to 7.00; for `Cn1c2ccccc2c2c(S(=O)(=O)Nc3ccccc3C#Cc3ccc(C(=O)O)nc3)cccc21` [Compound 198, 5-{2-[2-(9-methyl-9H-carbazole-4-sulfonamido)phenyl]ethynyl}pyridine-2-carboxylic acid] it is 6.00 to 7.00; for `COc1ccc(S(=O)(=O)Nc2ccc(F)cc2C#Cc2ccc(C(=O)O)cc2)c2ccccc12` [Compound 25, 4-{2-[5-fluoro-2-(4-methoxynaphthalene-1-sulfonamido)phenyl]ethynyl}benzoic acid] it is 6.00 to 7.00.
The figure for `COc1cc(C(=O)O)ncc1C#Cc1cc(Br)c(F)cc1NS(=O)(=O)c1c(C)ccc2cccnc12` [Compound 353, 5-{2-[5-bromo-4-fluoro-2-(7-methylquinoline-8-sulfonamido)phenyl]ethynyl}-4-methoxypyridine-2-carboxylic acid] is 7.00 to 8.00; for `COc1cc(C(=O)O)ncc1C#Cc1cc(Br)c(F)cc1NS(=O)(=O)c1ccc(OC)c2cccnc12` [Compound 358, 5-{2-[5-bromo-4-fluoro-2-(5-methoxyquinoline-8-sulfonamido)phenyl]ethynyl}-4-methoxypyridine-2-carboxylic acid] it is 8.00 to 9.00; for `COc1cc(C#Cc2ccccc2NS(=O)(=O)c2ccc(OC)c3cccnc23)cnc1C(=O)O` [Compound 170, 3-methoxy-5-{2-[2-(5-methoxyquinoline-8-sulfonamido)phenyl]ethynyl}pyridine-2-carboxylic acid] it is 4.00 to 6.00.
In the case of `NCCOCCOCCOc1ccc(NS(=O)(=O)c2cccc3cccnc23)c(C#Cc2ccc(C(=O)O)nc2)c1` [Compound 333, 5-[5-{2-[2-(2-Amino-ethoxy)-ethoxy]-ethoxy}-2-(quinoline-8-sulfonylamino)-phenylethynyl]-pyridine-2-carboxylic acid] it was 4.00 to 6.00.
`O=C(O)c1ccc(C#Cc2ccccc2NS(=O)(=O)C2CS(=O)(=O)c3ccccc32)cc1` (stereo not shown) [Compound 76, 4-{2-[2-(1,1-dioxo-2,3-dihydro-1lambda6-benzo[b]thiophene-3-sulfonamido)phenyl]ethynyl}benzoic acid] had a pIC50 of 4.00 to 6.00.
With `C=C(C)c1cc(C(=O)O)ncc1C#Cc1ccccc1NS(=O)(=O)c1c(C)ccc2cccnc12` [Compound 158, 5-{2-[2-(7-methylquinoline-8-sulfonamido)phenyl]ethynyl}-4-(prop-1-en-2-yl)pyridine-2-carboxylic acid], the pIC50 was 7.00 to 8.00.
In the case of `O=C(O)c1ccc(C#Cc2ccccc2NS(=O)(=O)c2cccc3c(Cl)cc(Cl)nc23)cn1` [Compound 314, 5-{2-[2-(2,4-dichloroquinoline-8-sulfonamido)phenyl]ethynyl}pyridine-2-carboxylic acid] it was 6.00 to 7.00.
Take `Cc1c(C)c(S(=O)(=O)Nc2ccccc2C#Cc2ccc(C(=O)O)nc2)c2ncccc2c1C` [Compound 305, 5-{2-[2-(5,6,7-trimethylquinoline-8-sulfonamido)phenyl]ethynyl}pyridine-2-carboxylic acid]: the pIC50 is 7.00 to 8.00.
In the case of `CS(=O)(=O)N(Cc1ccc2ccccc2n1)c1ccccc1C#Cc1ccc(C(=O)O)nc1` [Compound 120, 5-[2-(2-{N-[(quinolin-2-yl)methyl]methanesulfonamido}phenyl)ethynyl]pyridine-2-carboxylic acid], the pIC50 was 4.00 to 6.00.
In the case of `COC(=O)c1ncc(C#Cc2cc(F)ccc2NS(=O)(=O)c2ccc(-c3ccccc3)cc2)cc1C` [Compound 313, methyl 5-[2-(2-{[1,1′-biphenyl]-4-sulfonamido}-5-fluorophenyl)ethynyl]-3-methylpyridine-2-carboxylate] it was 4.00 to 6.00; in that of `Cc1cc(C(=O)O)ncc1C#Cc1ccccc1NS(=O)(=O)c1cccc2c(N(C)C)ccnc12` [Compound 421, 5-[2-(4-Dimethylamino-quinoline-8-sulfonylamino)-phenylethynyl]-4-methyl-pyridine-2-carboxylic acid], 6.00 to 7.00.
Regarding `COc1ccc(S(=O)(=O)Nc2ccc(F)cc2C#Cc2ccc(C(=O)O)nc2)c2ccccc12` [Compound 37, 5-{2-[5-fluoro-2-(4-methoxynaphthalene-1-sulfonamido)phenyl]ethynyl}pyridine-2-carboxylic acid], the negative logarithm of the IC50 (pIC50) was 6.00 to 7.00.
In the case of `CC(C)(C)OC(=O)NCCOCCOCCOc1ccc(NS(=O)(=O)c2cccc3cccnc23)c(C#Cc2ccc(C(=O)O)nc2)c1` [Compound 331, 5-[5-{2-[2-(2-tert-Butoxycarbonylamino-ethoxy)-ethoxy]-ethoxy}-2-(quinoline-8-sulfonylamino)-phenylethynyl]-pyridine-2-carboxylic acid] it was 4.00 to 6.00.
